Consider 19 compounds from PubChem BioAssay (NCI).

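A five-concentration, 48-hour dose response in 96-well plates underlies each endpoint, interpolated linearly between surrounding concentrations. GI50 = concentration required for 50% inhibition of growth. TGI marks complete inhibition of growth.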

Common to all, as to experiment: inhibition of tumour cell growth, NCI panel, 48 h
Assay [1] relates to SF-295 CNS.
Assay [2] concerns CCRF-CEM leukemia.
For assay [3], the system named is SNB-75 CNS.
The subject of assay [4] is SN12C renal.
Assay [5] concerns HCT-116 colon.
Assay [6] has as its system RPMI-8226 leukemia.
Assay [7] concerns HOP-92 NSCLC.
Assay [8] deals with SR leukemia.
The subject of assay [9] is OVCAR-3 ovarian.
In assay [10] the test system is SK-MEL-28 melanoma.

Turning to `COC(=O)/C=C/C1C(C(=O)OC)C2(C(=O)OC)CCC1(C(=O)OC)N2` (stereo not given), the TGI in assay [1], in [2], in [3], in assay [4], in assay [5] and in [6] was more than 100 µM throughout. In addition, the TGI in [7], in assay [8] and in [9] was more than 100 µM throughout.
For `O=C(Nc1ccc(Cl)cc1F)c1cc(Br)ccc1O`, the GI50 in assay [1] is 1.65 µM; in [2], 2.37 µM; in assay [3] it was 0.468 µM; in assay [4] it was 0.788 µM; in [10] it was 0.563 µM; in [5], 0.805 µM. Further, the GI50 in assay [6] is 0.43 µM; in [7] it was 0.183 µM; in assay [8] it was 0.7 µM; in assay [9], 0.604 µM. Further, the TGI is 3.51 µM in assay [1]; more than 27.6 µM in assay [2]; 2.87 µM in [3]; 8.58 µM in assay [4]; 3.19 µM in assay [10]; 3.19 µM in assay [5]. In addition, the TGI in assay [6] was 2.19 µM; in assay [7], 0.67 µM; in assay [8] it was more than 23 µM; in assay [9], 14.2 µM.
For the compound `Cc1c[n+](Cc2ccc3ccccc3c2)cn1Cc1ccc2ccccc2c1`, the GI50 in assay [1] was 1.95 µM; in [2], 2.45 µM; in assay [3] it was 1.09 µM; in [4], 1.67 µM; in assay [10], 1.8 µM; in [5] it was 1.39 µM. The GI50 in assay [6] is 0.595 µM; in [7] it was 0.448 µM; in assay [8], 1.46 µM; in assay [9], 1.04 µM. For the same compound, the TGI in [1] amounted to 5.56 µM; in [2], 5.71 µM; in [3], 2.51 µM; in assay [4], 3.33 µM; in assay [10] it was 3.7 µM; in assay [5] it was 2.7 µM. Moreover, the TGI in assay [6] was found to be 2.49 µM; in [7] it was 2.02 µM; in assay [8] it was 3.58 µM; in assay [9] it was 2.28 µM.
Take `O=C(Nc1ccc([N+](=O)[O-])cc1)C1C(=O)C(=O)N(c2ccc([N+](=O)[O-])cc2)C1=O` (stereo not given): the TGI in [1], in assay [2], in [3], in assay [4], in assay [10] and in [5] was more than 100 µM in each case. Besides, the TGI in assay [6], in assay [7], in assay [8] and in [9] was more than 100 µM throughout.
Regarding `O=C1CSC(Cc2nc3ccccc3[nH]2)=N1`, the TGI in assay [1] was 63.3 µM; in [2], more than 94 µM; in [3], 27.4 µM; in assay [4] it was 44.8 µM; in assay [10], more than 76.1 µM; in [5] it was 27.6 µM. Further, the TGI was more than 100 µM in [6], 57.8 µM in [7], 25.6 µM in [8] and 31.6 µM in [9].
In the case of `O=C(/C=C/c1ccccc1)/C=C/c1ccccc1`, the TGI is more than 100 µM in assay [1]; more than 100 µM in [2]; more than 100 µM in [3]; 42.1 µM in assay [4]; 42.9 µM in [10]; 32.1 µM in assay [5]. The TGI in [6] is more than 100 µM; in assay [7] it was 88.6 µM; in [8], 67.1 µM; in [9], 51.3 µM.
As to `CCCCCCCCCc1cc(=O)c2c(O)cccc2o1`, the TGI was more than 100 µM in assay [1]; more than 100 µM in [2]; more than 10 µM in assay [3]; more than 100 µM in assay [4]; more than 100 µM in assay [10]; more than 100 µM in [5]. Further, the TGI in assay [6], in assay [7], in assay [8] and in assay [9] was more than 100 µM throughout.
On to `CCOC(=O)N1CCN(C(=O)c2ccc(C(F)(F)F)nc2Nc2cc(Cl)ccc2C)CC1`, for which the GI50 was 14.6 µM in assay [1]; 18.9 µM in assay [2]; 1.41 µM in assay [3]; 36.8 µM in assay [4]; 26.1 µM in assay [10]; 12.3 µM in [5]. Besides, the GI50 in assay [6] is 11.4 µM; in assay [7] it was 10.2 µM; in assay [8] it was 7.74 µM; in assay [9], 8.85 µM. Besides, the TGI was 65.3 µM in assay [1]; more than 100 µM in assay [2]; 24.1 µM in [3]; more than 100 µM in [4]; 96 µM in assay [10]; 30.1 µM in assay [5]. Besides, the TGI in [6] was 64.8 µM; in assay [7], more than 100 µM; in assay [8] it was 65.7 µM; in [9] it was 47.2 µM.
Consider `CN=NN(C)C(=O)NC`, for which the TGI in [1], in assay [2], in assay [3], in assay [4], in assay [10] and in [5] was more than 100 µM in each case. For the same compound, the TGI in [6], in [7], in assay [8] and in [9] was more than 100 µM each time.
In the case of `Fc1ccc(Nc2cc(-n3nnc4ccccc43)nc3ccccc23)cc1`, the GI50 in assay [1] was 13.4 µM; in assay [2], more than 100 µM; in assay [3] it was 14.1 µM; in assay [4] it was 30 µM; in assay [10], more than 56.2 µM; in [5] it was 36.4 µM. Besides, the GI50 in [6] was 19.3 µM; in assay [7] it was 14.4 µM; in assay [8] it was more than 100 µM; in assay [9], 28.4 µM. For the same compound, the TGI in assay [1] was 41.5 µM; in assay [2] it was more than 100 µM; in assay [3], 45.8 µM; in [4], more than 69.3 µM; in assay [10], more than 100 µM; in assay [5] it was more than 100 µM. Also, the TGI is more than 100 µM in assay [6], 34 µM in assay [7], more than 100 µM in [8] and more than 100 µM in assay [9].
`COC(=O)[C@@H](NC(=O)[C@@H](OC)[C@@H]1Cc2cc3cc(OC4CC(OC5CC(O)C(O)C(C)O5)C(O)C(C)O4)c(C)c(O)c3c(O)c2C(=O)[C@H]1OC1CC(OC2CC(OC3CC(C)(O)C(O)C(C)O3)C(O)C(C)O2)C(O)C(C)O1)C(C)C` (stereo not given in full): the GI50 in assay [1] is 0.0934 µM; in assay [2], 0.122 µM; in assay [3] it was 0.0849 µM; in assay [4], 0.145 µM; in [10], 0.0971 µM; in assay [5], 0.0934 µM. In addition, the GI50 is 0.0918 µM in [6], 0.101 µM in [7], 0.0174 µM in assay [8] and 0.165 µM in [9]. In addition, the TGI in assay [1] was 2.11 µM; in assay [2] it was more than 32.5 µM; in [3] it was 1.46 µM; in assay [4], more than 32.5 µM; in assay [10] it was 6.04 µM; in assay [5], more than 32.5 µM. Also, the TGI in [6] was 0.619 µM; in assay [7], 1.13 µM; in [8], 5.08 µM; in assay [9], more than 32.5 µM.
Consider `Cc1[nH][nH]c(=O)c1C=Nc1ccc(-c2nc3ccccc3[nH]2)cc1`, for which the GI50 was 18.4 µM in [1]; 0.066 µM in [2]; 19.6 µM in assay [3]; 36.7 µM in [4]; 38.2 µM in assay [6]; more than 100 µM in assay [7]. For the same compound, the figures for the GI50 in [8] and in assay [9] were 39.7 µM and 14.9 µM, respectively. Also, the TGI was 42.3 µM in assay [1]; more than 100 µM in assay [2]; 40.5 µM in [3]; 96.5 µM in assay [4]; more than 100 µM in assay [6]; more than 100 µM in assay [7]. Further, the TGI in [8] was 97.1 µM; in [9], 36 µM.
For `COc1cc2cn3c4ccc(O)cc4[nH]c(=O)c3c2cc1OC`, the GI50 in assay [2] was 0.0224 µM; in [3], 0.0197 µM; in assay [4], 0.0435 µM; in [10], less than 0.01 µM; in assay [5], less than 0.01 µM; in assay [6] it was 1.25 µM. Besides, the values for the GI50 in assay [7], in assay [8] and in [9] were 2.14 µM, 0.0173 µM and less than 0.01 µM, respectively. The TGI is 1.47 µM in assay [3]; 1.98 µM in [4]; 0.681 µM in assay [10]; 1.66 µM in assay [5]; 10.4 µM in assay [6]; 7.72 µM in [7]. For the same compound, the values for the TGI in assay [8] and in assay [9] were 1.79 µM and 0.214 µM, respectively.
Regarding `O=c1[nH]c2cc(Cl)ccc2n1C1CCN(CCCC(c2ccc(F)cc2)c2ccc(F)cc2)CC1`, the GI50 in assay [2] is 2.31 µM; in assay [3], 1.27 µM; in assay [4], 1.78 µM; in assay [10], 1.47 µM; in [5], 1.46 µM; in assay [6] it was 0.711 µM. The GI50 in [7] is 1.01 µM; in assay [8] it was 2.25 µM; in assay [9], 1.81 µM. The TGI in [2] amounted to 6.98 µM; in assay [3] it was 2.73 µM; in assay [4], 3.27 µM; in assay [10], 3.1 µM; in assay [5], 2.87 µM; in assay [6], 3.6 µM. For the same compound, the TGI came to 2.41 µM in assay [7], 8.36 µM in assay [8] and 3.27 µM in assay [9].
As to `CC(=O)Oc1ccccc1C(=O)N=C1[Se]CCN1C(=O)c1ccccc1OC(C)=O`, the GI50 in assay [1] is 1.43 µM; in [2], 0.556 µM; in assay [3], 1.25 µM; in assay [10] it was 0.492 µM; in assay [5], 0.32 µM; in [6], 2.94 µM. Moreover, the values for the GI50 in assay [7] and in assay [8] were 1.85 µM and 1.51 µM, respectively. Further, the TGI in assay [1] was 2.8 µM; in [2], more than 100 µM; in assay [3], 3 µM; in assay [10] it was 3.25 µM; in assay [5], 1.15 µM; in assay [6] it was 8.46 µM. In addition, the TGI in [7] is 3.58 µM; in assay [8], more than 100 µM.
As to `O=C(CN(C1CCCCC1)C1CCCCC1)Nc1ccc(S(=O)(=O)c2ccc(NC(=O)CN(C3CCCCC3)C3CCCCC3)cc2)cc1`, the GI50 was 1.5 µM in assay [1]; 0.222 µM in assay [2]; 2.27 µM in assay [3]; 1.33 µM in [4]; 1.21 µM in assay [10]; 0.158 µM in [5]. Also, the results for the GI50 in assay [7], in assay [8] and in assay [9] were 1.39 µM, 0.224 µM and 0.279 µM, respectively. Besides, the TGI in assay [1] turned out to be 2.96 µM; in assay [2] it was 1.28 µM; in assay [3], 9.32 µM; in assay [4], 2.73 µM; in [10], 2.82 µM; in assay [5], 0.396 µM. For the same compound, the TGI in assay [7] was 2.93 µM; in [8], 1.52 µM; in assay [9] it was 1.02 µM.
`CCOC(=O)[C@H](CCCNC(=O)OC(C)(C)C)NCc1ccc(OC)c(OC)c1`: the TGI in [1], in assay [2], in [3], in assay [4], in assay [10] and in [5] was more than 100 µM in each case. In addition, the TGI in [7], in assay [8] and in [9] was more than 100 µM in each case.
Consider `CCN(CC)CC(C)(C)C(=O)/C=C/c1ccc(Cl)c(Cl)c1`, for which the GI50 in [1] is 1.74 µM; in assay [2] it was 1.14 µM; in assay [3] it was 1.3 µM; in assay [10], 1.57 µM; in [5], 1.79 µM; in [6] it was 1.96 µM. Further, the GI50 in [7] is 0.418 µM; in assay [8], 1.75 µM; in [9], 1.53 µM. The TGI was found to be 3.22 µM in [1]; 4.22 µM in assay [2]; 2.93 µM in [3]; 3.08 µM in assay [10]; 3.2 µM in [5]; 5.47 µM in assay [6]. Moreover, the TGI in assay [7] amounted to 1.85 µM; in [8] it was 8.91 µM; in [9], 2.88 µM.
`O=C(CSc1nnc(-c2ccccc2NC(=O)C(F)(F)F)c(=O)[nH]1)NC(=O)Nc1ccccc1`: the TGI in [1] is more than 100 µM; in assay [2], more than 100 µM; in [3] it was 45 µM; in assay [4], more than 100 µM; in [10] it was more than 100 µM; in assay [5], more than 100 µM. Also, the TGI in [7], in assay [8] and in [9] was more than 100 µM in each case.
